Structures can show the parent of a compound that is named as a salt.

The test system of one assay is UCMS. Set-up: method as in PMID 28732760. The conditions noted are these: cited from earlier work.
The next assay deals with mice. The following applies: cited from earlier work.
In another assay the test system is ICR mice. Set-up: method as in PMID 31394019. The following applies: oral, 5 mg/kg for 7 days, vs vehicle-administered control group; cited from earlier work.
The target of the next assay is T1, recombinant human MAO-B (Homo sapiens, UniProt P27338).
T1 sequence (P27338 1-520): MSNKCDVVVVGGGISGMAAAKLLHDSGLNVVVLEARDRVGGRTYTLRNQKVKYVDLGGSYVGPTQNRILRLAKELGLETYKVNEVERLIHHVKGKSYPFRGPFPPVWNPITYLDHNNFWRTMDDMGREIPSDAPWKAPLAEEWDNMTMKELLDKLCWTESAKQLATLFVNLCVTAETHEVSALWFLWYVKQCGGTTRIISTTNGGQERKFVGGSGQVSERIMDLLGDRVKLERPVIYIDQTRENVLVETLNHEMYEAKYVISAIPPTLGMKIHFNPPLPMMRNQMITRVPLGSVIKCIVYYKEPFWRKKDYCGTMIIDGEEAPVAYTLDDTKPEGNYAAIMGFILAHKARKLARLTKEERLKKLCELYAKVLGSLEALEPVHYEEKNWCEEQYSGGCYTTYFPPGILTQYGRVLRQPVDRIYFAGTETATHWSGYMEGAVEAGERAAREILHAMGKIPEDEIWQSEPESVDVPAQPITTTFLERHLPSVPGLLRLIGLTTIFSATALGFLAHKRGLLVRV
The following applies: read-out: Km for the oxidation of kynuramine by MAO-B; cited from earlier work.

A further assay addresses T2, recombinant human MAO-A (Homo sapiens, UniProt P21397).
T2 sequence (P21397 1-527): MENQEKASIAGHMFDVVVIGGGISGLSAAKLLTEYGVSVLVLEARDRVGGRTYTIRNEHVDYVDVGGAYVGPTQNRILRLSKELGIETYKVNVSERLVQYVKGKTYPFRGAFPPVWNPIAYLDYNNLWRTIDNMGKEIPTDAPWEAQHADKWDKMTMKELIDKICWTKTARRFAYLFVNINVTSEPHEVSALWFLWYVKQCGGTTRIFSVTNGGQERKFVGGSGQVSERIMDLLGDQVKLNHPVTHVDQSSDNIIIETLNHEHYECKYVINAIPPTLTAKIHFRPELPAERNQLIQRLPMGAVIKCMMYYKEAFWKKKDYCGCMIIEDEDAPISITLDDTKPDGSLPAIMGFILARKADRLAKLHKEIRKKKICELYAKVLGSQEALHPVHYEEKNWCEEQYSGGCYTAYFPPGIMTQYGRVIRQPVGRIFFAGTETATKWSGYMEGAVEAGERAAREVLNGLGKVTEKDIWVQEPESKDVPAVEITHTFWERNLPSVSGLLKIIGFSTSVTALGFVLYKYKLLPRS
The following applies: read-out: Km for the oxidation of kynuramine by MAO-A; cited from earlier work.

A further assay deals with CREB mRNA. Description: QPCR of CREB mRNA in frontal cortex and hippocampus of UCMS mice. Format: in vivo, ICR mice. The conditions noted are these: LE 100 and 500 mg/kg p.o., IMP 20 mg/kg i.p. How it is done: (§1) UCMS procedures were used to induce the depressive-like behaviors in mice as previously described by Mizuki et al., with minor modification. Briefly, in week 0, the animals were first trained to consume a 2% sucrose solution for a 48-h period in their home cages with no food or water. After this training, the animals were deprived of water and food for 18 h, and then sucrose solution was given for 1 h per day for 5 consecutive days in order to group the mice and determine the baseline sucrose consumption. The animals were randomly divided into 5 groups: a non-stressed control group and 4 other groups subjected to UCMS for 5 weeks. […]
(§2) Mouse serum/glucocorticoid-regulated kinase 1 (SGK1), cyclic AMP response element binding protein (CREB), brain-derived neurotrophic factor (BDNF), mRNAs expression in hippocampus and frontal cortex were quantified by real time PCR. […] Fold difference relative expressions were calculated.

A further assay relates to BDNF mRNA. In words: QPCR of BDNF mRNA in frontal cortex and hippocampus of UCMS mice. The format is in vivo, ICR mice. The following applies: LE 100 and 500 mg/kg p.o., IMP 20 mg/kg i.p. Here is the method: as §1, §2
Assay [1] deals with UCMS mice. Description: Locomotor activity in the Y-maze task in UCMS mice. Format: in vivo, ICR mice. The following applies: LE 100 and 500 mg/kg p.o., IMP 20 mg/kg i.p. Here is the method: as §1
In order to exclude false positive results from drug-induced hyperlocomotion in hopeless behavioral tests, locomotor activity was determined by evaluation of mice movement. […] One hour after drug administration, the mice were individually placed on one arm, and the total arm entries were recorded manually over 8 min-period for measuring the locomotion activity.

The test system of assay [2] is UCMS mice. In words: Sucrose preference test (anhedonia) in UCMS mice. Format: in vivo, ICR mice. The following applies: IMP 20 mg/kg i.p. daily, 5th week, vs vehicle-treated UCMS group. How it is done:
as §1, with “weeks. The UCMS procedures consisted of a variety of unpredictable mild stressors, including two periods of cage tilting at 45° (12 h), two periods of restricted access to food (5 micropellets, 1 h), two periods of exposure to an empty bottle (3 h), one 21 h-period of a wet cage (200 mL of water in 100 g of sawdust bedding), two periods of light exposure (36 h), two periods of intermittent sound (a cat singing sound) (3 and 5 h), two periods of paired caging (2 h), and food and water deprivation for 18 h before the measurement of 2% sucrose solution consumption.” for “weeks.”
The sucrose preference test was used to assess the anhedonic-like behavior. […] The amounts of 2% (w/v) sucrose solution were recorded. […]

Another assay has as its system SGK1 mRNA. Description: QPCR of SGK1 mRNA in frontal cortex and hippocampus of UCMS mice. The following applies: LE 100 and 500 mg/kg p.o. (dose-dependent), IMP 20 mg/kg i.p. Format: in vivo, ICR mice. Here is the method:
as §1, §2

For assay [3], the system named is UCMS mice. Description: Tail suspension test (TST) in UCMS mice. Format: in vivo, ICR mice. The following applies: LE 100 and 500 mg/kg p.o. (dose-dependent), IMP 20 mg/kg i.p., vs vehicle-treated UCMS group. Here is the method: as §1
Each mouse was suspended upside down in the tail suspension test box, which leads to characteristic behavior immobility. […] Immobility duration was recorded for the last 4 min, during a 6-min observation period. […]

Assay [4] has as its system serum corticosterone (CORT). In words: Serum corticosterone (CORT) ELISA in UCMS mice. The format is in vivo, ICR mice. The following applies: imipramine 20 mg/kg/day, LE 100–500 mg/kg/day for 3 weeks, vs vehicle-treated UCMS group. Here is the method:
as §1
After completing the behavioral analysis, blood was collected via cardiac puncture under anesthesia with pentobarbital sodium as anesthetic drug (Nembutal®: 60 mg/kg i.p.; Ceva Sante Animale, Libourne, France). […] The absorbance was immediately determined at 450 nm.

In assay [5] the test system is UCMS mice. Description: Forced swimming test (FST) in UCMS mice. The conditions noted are these: LE 100 and 500 mg/kg p.o. (dose-dependent), IMP 20 mg/kg i.p., vs vehicle-treated UCMS group. The format is in vivo, ICR mice. How it is done:
as §1, with “weeks. The UCMS procedures consisted of a variety of unpredictable mild stressors, including two periods of cage tilting at 45° (12 h), two periods of restricted access to food (5 micropellets, 1 h), two periods of exposure to an empty bottle (3 h), one 21 h-period of a wet cage (200 mL of water in 100 g of sawdust bedding), two periods of light exposure (36 h), two periods of intermittent sound (a cat singing sound) (3 and 5 h), two periods of paired caging (2 h), and food and water deprivation for 18 h before the measurement of 2% sucrose solution consumption.” for “weeks.”
Forced swimming test (FST) is one of the most commonly used animal models for assessing antidepressant-like behavior. […] The immobility time was recorded during 5 min.

For `C[C@@H]1O[C@@H](OC[C@H]2O[C@@H](Oc3c(-c4ccc(O)c(O)c4)oc4cc(O)cc(O)c4c3=O)[C@H](O)[C@@H](O)[C@@H]2O)[C@H](O)[C@H](O)[C@H]1O` [Rutin, quercetin-3-rutinoside], the UCMS-induced behavioral deficits entry in the assay on UCMS was “efficiently rescued the UCMS-induced behavioral deficits”.
As for `O=c1cc(-c2ccc(O)c(O)c2)oc2cc(O)cc(O)c12` [luteolin], in the assay on mice (oral administration, 50 mg/kg), the “effect in FST and TST” value is on record as “antidepressant effects”.
On to `COc1cc(/C=C/C(=O)O)ccc1O` [ferulic acid], for which the immobility entry with ICR mice is listed as “significantly reduced immobility”.
With `NCCC(=O)c1ccccc1N` [kynuramine], the Km at recombinant human MAO-B is 22.7 µM; at recombinant human MAO-A, 16.1 µM.
For `O=c1c(O)c(-c2ccc(O)cc2)oc2cc(O)cc(O)c12` [Kaemferol], in the assay on mice (stress-induced mice compared with unstressed mice), the “immobility time in FST and TST” value is reported as “reducing the immobility time”.
Turning to `CN(C)CCCN1c2ccccc2CCc2ccccc21` [imipramine, imipramine hydrochloride], in the assay with CREB mRNA, the “expression of CREB mRNA” value is listed as “normalized the down-regulated expression”. In the assay on BDNF mRNA, the “expression of BDNF mRNA” value was “normalized the down-regulated expression”. In addition, the “locomotor activity (number of arm entries, Y-maze)” value in the assay on UCMS mice [1] is given as “neither imipramine (IMP) nor the ethanol extract of D. alatus leaf improved the locomotor activity”. Besides, in the assay on UCMS mice [2], the 2% sucrose intake result is given as “significant increase”. Moreover, in the assay with SGK1 mRNA, the “mRNA expression of SGK1” value is listed as “markedly decreased”. For the same molecule, the “immobility time in TST” value with UCMS mice [3] is “significantly decreased the immobility time”. Also, the “UCMS-induced elevation in serum CORT levels” value in assay [4] is reported as “significantly suppressed”. Moreover, the “immobility time in FST” value with UCMS mice [5] was “significantly decreased the immobility time”.

The record behind these values is paper PMC6767234, “Effects of the Ethanol Extract of Dipterocarpus alatus Leaf on the Unpredictable Chronic Mild Stress-Induced Depression in ICR Mice and Its Possible Mechanism of Action” (Molecules, 2019).
